Assay results: ChEMBL document CHEMBL1155466, “Structure-activity relationships of 6-methyl-benzo[b]thiophene-2-carboxylic acid (1-[(S)-1-benzyl-4-[4-(tetrahydropyran-4-ylmethyl)piperazin-1-yl]butylcarbamoyl]cyclopentyl)amide, potent antagonist of the neurokinin-2 receptor” (J Med Chem, 2010)

What was measured:
[1] = molecular target: T1, Substance-K receptor (Homo sapiens, UniProt P21452); assay: Displacement of [3H]neurokinin A from human NK2 receptor
T1 sequence (P21452 whole entry): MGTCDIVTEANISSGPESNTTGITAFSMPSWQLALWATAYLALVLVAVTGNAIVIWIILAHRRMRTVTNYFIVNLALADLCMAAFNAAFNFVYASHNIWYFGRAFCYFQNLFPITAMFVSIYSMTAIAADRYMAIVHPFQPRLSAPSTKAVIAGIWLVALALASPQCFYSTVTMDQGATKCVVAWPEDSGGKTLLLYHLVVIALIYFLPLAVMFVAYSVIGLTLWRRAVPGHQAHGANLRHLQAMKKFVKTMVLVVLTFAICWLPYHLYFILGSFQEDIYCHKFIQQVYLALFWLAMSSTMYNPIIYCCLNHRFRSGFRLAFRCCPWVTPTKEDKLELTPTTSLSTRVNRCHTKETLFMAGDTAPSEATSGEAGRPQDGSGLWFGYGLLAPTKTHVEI

[2] = molecular target: T2, Substance-K receptor (Cavia porcellus) (UniProt Q64077); assay: Antagonist activity at NK2 receptor in Dunkin-Hartley guinea pig colon smooth muscle assessed as inhibition of [beta-Ala8]NKA(4-10)-induced tissue contraction in presence of NK1 receptor antagonist SR-140333; type: functional, tissue-based
T2 sequence (whole entry): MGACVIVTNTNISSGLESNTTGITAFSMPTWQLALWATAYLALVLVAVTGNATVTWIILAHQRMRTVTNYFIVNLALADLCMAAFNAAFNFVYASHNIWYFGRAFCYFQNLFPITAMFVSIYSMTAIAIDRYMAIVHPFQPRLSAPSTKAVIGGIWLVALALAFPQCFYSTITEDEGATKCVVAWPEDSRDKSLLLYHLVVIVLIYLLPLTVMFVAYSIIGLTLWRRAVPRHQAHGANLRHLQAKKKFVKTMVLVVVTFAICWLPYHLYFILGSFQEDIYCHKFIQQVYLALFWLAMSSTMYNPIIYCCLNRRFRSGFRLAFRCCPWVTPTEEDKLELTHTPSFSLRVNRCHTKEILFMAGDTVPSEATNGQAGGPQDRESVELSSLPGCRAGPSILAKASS

[3] = system: Cavia porcellus; assay: Inhibition of [beta-Ala8]NKA(4-10)-induced colonic contractions in Dunkin-Hartley guinea pig at 3 umol/kg, iv after 4 hrs relative to control; type: functional
[4] = Apparent permeability from apical to basolateral side of human Caco-2 cells at 100 uM

Ki [1] | pKb [2] | Papp A→B at 100 µM [4] | SMILES | Imax [3]
0.251 nM | 8.2 | – | O=C(NC1(C(=O)N[C@@H](CCCN2CCN(CC3CCOCC3)CC2)Cc2ccccc2)CCCC1)c1cc2ccccc2s1 | 82%
15.8 nM | – | – | Cc1ccc2cc(C(=O)NC3(C(=O)N[C@@H](CCN4CCN(CC5CCOCC5)CC4)Cc4ccccc4)CCCC3)sc2c1 | –
– | 6.9 | – | Cc1ccc2cc(C(=O)NC3(C(=O)N[C@@H](COCCC4CCN(CC5CCOCC5)CC4)Cc4ccccc4)CCCC3)sc2c1 | –
0.631 nM | 7.4 | 8.6 ×10⁻⁶ cm/s | COc1ccc2oc(C(=O)NC3(C(=O)N[C@@H](CCCN4CCN(CC5CCOCC5)CC4)Cc4ccccc4)CCCC3)cc2c1 | 98%
0.794 nM | 8 | – | CC/N=C(\N1CCOCC1)N1CCN(CCC[C@@H](Cc2ccccc2)NC(=O)C2(NC(=O)c3cc4ccc(C)cc4s3)CCCC2)CC1 | –
0.316 nM | 7.9 | – | Cc1ccc2cc(C(=O)NC3(C(=O)N[C@@H](CCCN4CCN(S(=O)(=O)N(C)C)CC4)Cc4ccccc4)CCCC3)sc2c1 | 80%
2 nM | 7.8 | – | Cc1ccc2cc(C(=O)NC3(C(=O)N[C@@H](CCC(=O)N4CCC(N5CCOCC5)CC4)Cc4ccccc4)CCCC3)sc2c1 | –
0.501 nM | 8.2 | – | Cc1ccc2cc(C(=O)NC3(C(=O)N[C@@H](/C=C/CN4CCN(CC5CCOCC5)CC4)Cc4ccccc4)CCCC3)sc2c1 | 72%
– | 8 | – | Cc1ccc2cc(C(=O)NC3(C(=O)N[C@@H](CCCN4CCN(Cc5c[nH]cn5)CC4)Cc4ccccc4)CCCC3)sc2c1 | 83%
0.158 nM | 8.2 | – | Cc1ccc2cc(C(=O)NC3(C(=O)N[C@@H](CCCN4CCN(Cc5ccoc5)CC4)Cc4ccccc4)CCCC3)sc2c1 | 67%
0.158 nM | 7.7 | – | Cc1ccc2cc(C(=O)NC3(C(=O)N[C@@H](CCCN4CCN(Cc5cccs5)CC4)Cc4ccccc4)CCCC3)sc2c1 | 83%
2 nM | 7.6 | – | Cc1ccc2cc(C(=O)NC3(C(=O)N[C@H](Cc4ccccc4)CN4CCN(CC5CCOCC5)CC4)CCCC3)sc2c1 | –
0.501 nM | 8.7 | 13.6 ×10⁻⁶ cm/s | O=C(NC1(C(=O)N[C@@H](CCCN2CCN(CC3CCOCC3)CC2)Cc2ccccc2)CCCC1)c1ccc(-c2ccccc2)cc1 | 86%
0.631 nM | 7.8 | – | Cc1ccc2cc(C(=O)NC3(C(=O)N[C@@H](CCCN4CCN(S(N)(=O)=O)CC4)Cc4ccccc4)CCCC3)sc2c1 | 62%
0.501 nM | 7.8 | – | Cc1ccc2cc(C(=O)NC3(C(=O)N[C@@H](CCCN4CCC(N5CCOCC5)CC4)Cc4ccccc4)CCCC3)sc2c1 | –
0.631 nM | 7.8 | – | Cc1ccc2cc(C(=O)NC3(C(=O)N[C@@H](CCCN4CCN(c5ccccn5)CC4)Cc4ccccc4)CCCC3)sc2c1 | 76%
0.631 nM | 8 | – | CCS(=O)(=O)N1CCN(CCC[C@@H](Cc2ccccc2)NC(=O)C2(NC(=O)c3cc4ccc(C)cc4s3)CCCC2)CC1 | 77%
0.251 nM | 8.1 | – | Cc1ccc2cc(C(=O)NC3(C(=O)N[C@@H](CCCN4CCN(C5CCOCC5)CC4)Cc4ccccc4)CCCC3)sc2c1 | 100%
0.158 nM | 7.9 | – | Cc1ccc2cc(C(=O)NC3(C(=O)N[C@@H](CCCN4CCN(Cc5ccccn5)CC4)Cc4ccccc4)CCCC3)sc2c1 | 90%
0.398 nM | 8.2 | – | Cc1ccc2cc(C(=O)NC3(C(=O)N[C@@H](CCCN4CCN(C(=O)c5cccn5C)CC4)Cc4ccccc4)CCCC3)sc2c1 | 100%
0.794 nM | 7.8 | – | Cc1ccc2cc(C(=O)NC3(C(=O)N[C@@H](CCCN4CCC(C(=O)N5CCOCC5)CC4)Cc4ccccc4)CCCC3)sc2c1 | 81%
– | 8.1 | – | Cc1ccc2cc(C(=O)NC3(C(=O)N[C@@H](CCCN4CCN(C(=O)C5CCOCC5)CC4)Cc4ccccc4)CCCC3)sc2c1 | 97%
0.398 nM | 8.3 | – | Cc1ccc2cc(C(=O)NC3(C(=O)N[C@@H](CCCN4CCN(C(=O)N5CCOCC5)CC4)Cc4ccccc4)CCCC3)sc2c1 | 85%
0.501 nM | 7.9 | – | Cc1ccc2cc(C(=O)NC3(C(=O)N[C@@H](CCCN4CCN(S(=O)(=O)C(C)C)CC4)Cc4ccccc4)CCCC3)sc2c1 | 85%
0.631 nM | 8.2 | 20.2 ×10⁻⁶ cm/s | O=C(NC1(C(=O)N[C@@H](CCCN2CCN(CC3CCOCC3)CC2)Cc2ccccc2)CCCC1)c1cc2ccccc2o1 | 65%
0.794 nM | 8 | – | Cc1ccc2cc(C(=O)NC3(C(=O)N[C@@H](CCCN4CCN(c5ncccn5)CC4)Cc4ccccc4)CCCC3)sc2c1 | 63%
0.631 nM | 7.6 | – | Cc1ccc2cc(C(=O)NC3(C(=O)N[C@@H](COCC4CCN(CC5CCOCC5)CC4)Cc4ccccc4)CCCC3)sc2c1 | 46%
0.251 nM | 8.4 | – | Cc1ccc2cc(C(=O)NC3(C(=O)N[C@@H](CCCN4CCN(Cc5ccncc5)CC4)Cc4ccccc4)CCCC3)sc2c1 | 86%

The remaining lines, values behind:

SMILES | Ki [1] | pKb [2] | Papp A→B at 100 µM [4] | Imax [3]
Cc1ccc2oc(C(=O)NC3(C(=O)N[C@@H](CCCN4CCN(CC5CCOCC5)CC4)Cc4ccccc4)CCCC3)cc2c1 | 0.398 nM | 8.7 | – | 100%
Cc1ccc2cc(C(=O)NC3(C(=O)N[C@H](CCCN4CCN(CC5CCOCC5)CC4)Cc4ccccc4)CCCC3)sc2c1 | 0.631 nM | 7.7 | – | –
Cc1ccc2cc(C(=O)NC3(C(=O)N[C@@H](CCCN4CCN(Cc5ccsc5)CC4)Cc4ccccc4)CCCC3)sc2c1 | 0.158 nM | 8.2 | – | 88%
Cc1ccc(-c2ccc(C(=O)NC3(C(=O)N[C@@H](CCCN4CCN(CC5CCOCC5)CC4)Cc4ccccc4)CCCC3)cc2)cc1 | 0.631 nM | 7.8 | 7.1 ×10⁻⁶ cm/s | 60%
Cc1ccc2cc(C(=O)NC3(C(=O)N[C@@H](CCCN4CCN(S(=O)(=O)N5CCOCC5)CC4)Cc4ccccc4)CCCC3)sc2c1 | 0.501 nM | 8.4 | – | 97%
CCOCCCN1CCN(CCC[C@@H](Cc2ccccc2)NC(=O)C2(NC(=O)c3cc4ccc(C)cc4s3)CCCC2)CC1 | 0.316 nM | 7.2 | – | –
Cc1ccc2cc(C(=O)NC3(C(=O)N[C@@H](CCCN4CCN(C=O)CC4)Cc4ccccc4)CCCC3)sc2c1 | 2 nM | 7.8 | – | –
Cc1ccc2cc(C(=O)NC3(C(=O)N[C@@H](CCCC4CCN(CC5CCOCC5)CC4)Cc4ccccc4)CCCC3)sc2c1 | – | 7.9 | – | 67%
Cc1ccc2cc(C(=O)NC3(C(=O)N[C@@H](CCCN4CCC(N(C)C5CCOCC5)CC4)Cc4ccccc4)CCCC3)sc2c1 | 1.26 nM | 7.8 | – | –
Cc1ccc2cc(C(=O)NC3(C(=O)N[C@@H](CCC(=O)N4CCC(N(C)C5CCOCC5)CC4)Cc4ccccc4)CCCC3)sc2c1 | 0.316 nM | 7.8 | – | 90%
Cc1ccc2cc(C(=O)NC3(C(=O)N[C@@H](CCCN4CCN(Cc5cnc[nH]5)CC4)Cc4ccccc4)CCCC3)sc2c1 | 1 nM | – | – | –
Cc1ccc2cc(C(=O)NC3(C(=O)N[C@@H](CCCN4CCN(Cc5ccc(F)cc5)CC4)Cc4ccccc4)CCCC3)sc2c1 | 0.126 nM | 8.2 | – | 66%
CO/N=C(\N1CCOCC1)N1CCN(CCC[C@@H](Cc2ccccc2)NC(=O)C2(NC(=O)c3cc4ccc(C)cc4s3)CCCC2)CC1 | – | – | – | 100%
Cc1ccc2cc(C(=O)NC3(C(=O)N[C@@H](CCC(=O)N4CCN(C5CCOCC5)CC4)Cc4ccccc4)CCCC3)sc2c1 | 0.0794 nM | 8.2 | – | 99%
Cc1ccc2cc(C(=O)NC3(C(=O)N[C@@H](CCCN4CCC(CCO)CC4)Cc4ccccc4)CCCC3)sc2c1 | 2 nM | 8.1 | – | 47%
Cc1ccc2cc(C(=O)NC3(C(=O)N[C@@H](CCCN4CCC(CN5CCOCC5)CC4)Cc4ccccc4)CCCC3)sc2c1 | 1 nM | 7.8 | – | 62%
O=C(NC1(C(=O)N[C@@H](CCCN2CCN(CC3CCOCC3)CC2)Cc2ccccc2)CCCC1)c1ccc2ccccc2c1 | 0.316 nM | 8.2 | 14.6 ×10⁻⁶ cm/s | –
Cc1ccc2cc(C(=O)NC3(C(=O)N[C@@H](CCCN4CCN(Cc5cccnc5)CC4)Cc4ccccc4)CCCC3)sc2c1 | 0.316 nM | 8.2 | – | 84%
Cc1ccc2cc(C(=O)NC3(C(=O)N[C@@H](CCCN4CCN(Cc5nnn(C)n5)CC4)Cc4ccccc4)CCCC3)sc2c1 | 0.316 nM | 7.9 | – | 72%
Cl.N[C@@H](CCC(=O)N1CCN(CC2CCOCC2)CC1)Cc1ccccc1 | 0.0794 nM | 7.9 | – | 99%
